Assay [1] has as its system transcription factor NF-κB. The conditions noted are these: Non-patent Literature 4 and 5; cited from earlier work.
The subject of assay [2] is pulmonary artery smooth muscle cells. The conditions noted are these: Non-patent Literature 5; cited from earlier work.
The test system of assay [3] is pulmonary artery smooth muscles derived from patients with pulmonary arterial hypertension. Description: MTT assay of cell proliferation of pulmonary artery smooth muscle cells from patients. The format is cell-based, human. Particulars: for suppressive effect on proliferation of pulmonary artery smooth muscle cells: final concentration 5 μM, same method as Example 1, data not shown. The source says:
The preventive or therapeutic agent for pulmonary hypertension of the present invention prevents or treats and ameliorates pulmonary hypertension by at least suppressing excessive proliferation of pulmonary artery smooth muscle cells. Accordingly, the present invention also provides a suppressor for excessive proliferation of pulmonary artery smooth muscle cells containing emetine or a salt thereof. […] However, emetine serving as the active ingredient of the present invention is a compound quite different in structure from IMD-0354 described above. Further, the inventors of the present invention examined N-p-tosyl-L-phenylalanine chloromethyl ketone, caffeic acid phenethyl ester, and Nα-p-tosyl-L-lysine chloromethyl ketone hydrochloride serving as compounds known to have NF-κB-inhibiting actions for their suppressive effects on the proliferation of pulmonary artery smooth muscle cells derived from patients with pulmonary hypertension by the same method as that described in Example 1 to be described later except that each of these compounds was added so that its final concentration was 5 μM. […] Also from such viewpoints, the suppressive effect of emetine on excessive proliferation of pulmonary artery smooth muscle cells and the preventive or therapeutic effect of emetine on pulmonary hypertension in the present invention are unpredictable from the related art. The active ingredient, dosage form, dose, and the like of the suppressor for excessive proliferation of pulmonary artery smooth muscle cells are the same as those of the preventive or therapeutic agent for pulmonary hypertension.
Pulmonary artery smooth muscles derived from patients with pulmonary arterial hypertension were treated with 1 nmol/L to 5 μmol/L emetine solutions (the emetine solutions were prepared with distilled water), and were cultured for 0 hours and 48 hours, followed by an MTT assay to assess cell proliferation rates. Specifically, smooth muscle cells were seeded in 96-well plates at 5,000 cells/well, and 24 hours after the seeding, emetine was added so that its final concentrations were adjusted to from 1 nmol/L to 5 μmol/L. The results are shown in FIG. 1.
A general note: Formazan colour is commonly taken as a measure of viable cells.

For assay [4], the system named is SU5416/Hypoxia model. The assay is described as follows: SU5416/Hypoxia pulmonary hypertension model. The format is in vivo, rats (SD rats). Particulars: 0.01 mg/kg or 0.05 mg/kg orally daily, week 8 to week 11 after SU5416; vs control group; FIG. 3. The method, then: In addition, an in vivo test using an SU5416/Hypoxia model was also performed. Specifically, first, an SU5416 (semaxanib) solution used for the production of the model was prepared by dissolving SU5416 using carboxy methyl cellulose (CMC). An emetine solution was prepared in the same manner as described above.
Six-week-old rats (SD rats, n=9) were administered 20 mg/kg SU5416 and then bred in a hypoxic chamber using a hypoxicator to be exposed to hypoxia (oxygen concentration: from 8% to 12%) for 3 weeks and then to normoxia. Then, the rats were orally administered 0.01 mg/kg or 0.05 mg/kg emetine daily for a period from the first day of week 8 after the SU5416 administration to the final day of week 11, and were sacrificed on the final day of week 11. Then, the extent of pulmonary hypertension was assessed in the same manner as in the monocrotaline-induced pulmonary hypertension model.

The test system of assay [5] is monocrotaline-induced pulmonary hypertension model. Description: monocrotaline-induced pulmonary hypertension model. The format is in vivo, rats (SD rats). The conditions noted are these: 0.01 mg/kg or 0.05 mg/kg orally daily for 3 weeks after 60 mg/kg monocrotaline s.c.; vs control group; FIG. 2. As for the experimental part: In vivo tests using pulmonary hypertension animal models were performed on emetine. Specifically, first, the influence of emetine on a monocrotaline-induced pulmonary hypertension model was investigated. A monocrotaline solution used for the production of the pulmonary hypertension model was prepared by dissolving monocrotaline with 1 mol/L hydrochloric acid and then adjusting the pH to 7.4 through titration with 1 mol/L sodium hydroxide using a pH meter. An emetine solution was prepared with distilled water. The monocrotaline-induced pulmonary hypertension model was produced by subcutaneously injecting 6-week-old rats (SD rats, n=13) with 60 mg/kg monocrotaline. After the subcutaneous injection with monocrotaline, the rats were orally administered 0.01 mg/kg or 0.05 mg/kg emetine daily for 3 weeks. A vehicle group was sacrificed 3 weeks after the administration of distilled water to measure right ventricular systolic pressure with Mikro-Tip Catheter transducers 2F (Millar). In addition, after formalin fixation, the right ventricle was removed from the left ventricle to measure a right ventricle/(left ventricle plus septum) weight ratio. Then, the extent of pulmonary hypertension was assessed on the basis of those results.

Regarding `O=C(Nc1cc(C(F)(F)F)cc(C(F)(F)F)c1)c1cc(Cl)ccc1O` [IMD-0354, N-[3,5-bis(trifluoromethyl)phenyl]-5-chloro-2-hydroxybenzamide], in assay [1], the NF-κB inhibition result is given as “has an NF-κB-inhibiting action”. The “proliferation of pulmonary artery smooth muscle cells” value in assay [2] is given as “suppresses the proliferation of pulmonary artery smooth muscle cells”.
As for `Cc1ccc(S(=O)(=O)N[C@@H](Cc2ccccc2)C(=O)CCl)cc1` [N-p-tosyl-L-phenylalanine chloromethyl ketone], the “suppressive effect on proliferation of pulmonary artery smooth muscle cells” value in assay [3] is given as “not sufficiently suppressed”.
On the same count and under the same terms, as for `Cc1ccc(S(=O)(=O)N[C@@H](CCCCN)C(=O)CCl)cc1.Cl` [Nα-p-tosyl-L-lysine chloromethyl ketone hydrochloride], the entry is “not sufficiently suppressed”; as for `O=C(/C=C/c1ccc(O)c(O)c1)OCCc1ccccc1` [caffeic acid phenethyl ester], “not sufficiently suppressed”.
Consider `CC[C@H]1CN2CCc3cc(OC)c(OC)cc3[C@@H]2C[C@@H]1C[C@H]1NCCc2cc(OC)c(OC)cc21` [emetine], for which, in assay [3] (emetine 1 nmol/L to 5 μmol/L, cultured 48 hours, FIG. 1), the “cell proliferation rate (MTT assay)” value is “suppressed proliferation of the pulmonary artery smooth muscles derived from patients with pulmonary arterial hypertension in a concentration-dependent manner”. In addition, in assay [1], the NF-κB inhibition entry was “known to inhibit a transcription factor NF-κB”. Also, in assay [4], the “right ventricle/(left ventricle plus septum) weight ratio” value is reported as “alleviated” and the “right ventricular systolic pressure” value is given as “alleviated”. Also, in assay [5], the “right ventricle/(left ventricle plus septum) weight ratio” value is listed as “suppressed” and the “right ventricular systolic pressure” value is recorded as “suppressed”.
